The results in this text go back to patent US20250019387A1 (Frontier Medicines Corporation, priority 0001, published 2025).

Sequence of KRAS G12C and cRAF (Ras-binding domain) interaction (P01116 other isoform, or with tags, fused parts or gaps G12C/C51S/C80L/C118S): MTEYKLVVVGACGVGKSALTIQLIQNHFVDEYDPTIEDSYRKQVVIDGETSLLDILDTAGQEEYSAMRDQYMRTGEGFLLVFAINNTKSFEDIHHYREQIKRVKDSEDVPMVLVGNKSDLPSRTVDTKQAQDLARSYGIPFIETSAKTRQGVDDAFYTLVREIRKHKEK

The first experiment deals with KRAS G12C and cRAF (Ras-binding domain) interaction (Homo sapiens (Human), UniProt P01116, C118S/C51S/C80L/G12C). The experiment is described as follows: Inhibition of KRAS G12C and cRAF binding (AlphaScreen). The note with it: GMPPNP-loaded KRAS G12C, 19-20 hours incubation with compound; read-out: IC50 (Inhibition of KRAS G12C and cRAF Binding). In short, it runs like this:
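Compounds (DMSO) preincubated 19-20 h at room temperature, then RBD with streptavidin donor and glutathione acceptor beads added in 25 mM Hepes pH 7.4, 150 mM NaCl, 5 mM MgCl2, 0.01% Triton X-100, 2% DMSO for 60-90 min. Emission 570 nm (excitation 680 nm); IC50 by 4-parameter fit. Counter-screen used biotin-AviTag-GST instead of RBD.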
With `C=CC(=O)C1[C@H]2CCN(c3nc(OC[C@@H]4CCCN4C)nc4c3CCN(c3cccc5cccc(Cl)c35)C4)C[C@@H]12` (stereo in doubt) [Example 43], the IC50 lay in the range of 10 to 100 nM.

Turning to `COC(=O)/C=C/C(=O)NCCN(C)c1nc(OC[C@@H]2CCCN2C)nc2c1CCN(c1cccc3ccc(F)c(Cl)c13)C2` [Example 1, methyl(S,E)-4-((2-((7-(8-chloro-7-fluoronaphthalen-1-yl)-2-((1-methylpyrrolidin-2-yl)methoxy)-5,6,7,8-tetrahydropyrido[3,4-d]pyrimidin-4-yl)(methyl)amino)ethyl)amino)-4-oxobut-2-enoate], the IC50 fell in the range of 10 to 100 nM.

On to `COC(=O)/C=C/C(=O)N1CCC(N(C)c2nc(OC[C@@H]3CCCN3C)nc3c2CCN(c2cccc4ccc(F)c(Cl)c24)C3)C1` (stereo partly drawn) [Example 2, methyl(E)-4-(3-((7-(8-chloro-7-fluoronaphthalen-1-yl)-2-(((S)-1-methylpyrrolidin-2-yl)methoxy)-5,6,7,8-tetrahydropyrido[3,4-d]pyrimidin-4-yl)(methyl)amino)pyrrolidin-1-yl)-4-oxobut-2-enoate], for which the IC50 fell in the range of 10 to 100 nM.

Take `COC(=O)/C=C/C(=O)N1CC[C@@H](N(C)c2nc(OC[C@@H]3CCCN3C)nc3c2CCN(c2cccc4ccc(F)c(Cl)c24)C3)C1` [Example 3, methyl(E)-4-((R)-3-((7-(8-chloro-7-fluoronaphthalen-1-yl)-2-(((S)-1-methylpyrrolidin-2-yl)methoxy)-5,6,7,8-tetrahydropyrido[3,4-d]pyrimidin-4-yl)(methyl)amino)pyrrolidin-1-yl)-4-oxobut-2-enoate]: the IC50 lay in the range of 10 to 100 nM.

Consider `COC(=O)/C=C/C(=O)N1C[C@@H](N(C)c2nc(OC[C@@H]3CCCN3C)nc3c2CCN(c2cccc4cccc(Cl)c24)C3)C[C@@H]1C` [Example 4, methyl(E)-4-((2S,4S)-4-((7-(8-chloronaphthalen-1-yl)-2-(((S)-1-methylpyrrolidin-2-yl)methoxy)-5,6,7,8-tetrahydropyrido[3,4-d]pyrimidin-4-yl)(methyl)amino)-2-methylpyrrolidin-1-yl)-4-oxobut-2-enoate], for which the IC50 was > 500 nM.

Take `COC/C=C/C(=O)N1CCC(N(C)c2nc(OC[C@@H]3CCCN3C)nc3c2CCN(c2cccc4cccc(Cl)c24)C3)C1` (stereo partly drawn) [Example 5, (E)-1-(3-((7-(8-chloronaphthalen-1-yl)-2-(((S)-1-methylpyrrolidin-2-yl)methoxy)-5,6,7,8-tetrahydropyrido[3,4-d]pyrimidin-4-yl)(methyl)amino)pyrrolidin-1-yl)-4-methoxybut-2-en-1-one]: the IC50 is > 500 nM.

With `COC(=O)/C=C/C(=O)N1CCC(N(C)c2nc(OC[C@@H]3CCCN3C)nc3c2CCN(c2cccc4cccc(Cl)c24)C3)C1` (stereo partly drawn) [Example 6, methyl(E)-4-(3-((7-(8-chloronaphthalen-1-yl)-2-(((S)-1-methylpyrrolidin-2-yl)methoxy)-5,6,7,8-tetrahydropyrido[3,4-d]pyrimidin-4-yl)(methyl)amino)pyrrolidin-1-yl)-4-oxobut-2-enoate], the IC50 lay in the range of 10 to 100 nM.

Regarding `COC(=O)/C=C\C(=O)N1CCC(N(C)c2nc(OC[C@@H]3CCCN3C)nc3c2CCN(c2cccc4cccc(Cl)c24)C3)C1` (stereo partly drawn) [Example 7, methyl (Z)-4-(3-((7-(8-chloronaphthalen-1-yl)-2-(((S)-1-methylpyrrolidin-2-yl)methoxy)-5,6,7,8-tetrahydropyrido[3,4-d]pyrimidin-4-yl)(methyl)amino)pyrrolidin-1-yl)-4-oxobut-2-enoate], the IC50 was > 500 nM.

Regarding `CN(c1nc(OC[C@@H]2CCCN2C)nc2c1CCN(c1cccc3cccc(Cl)c13)C2)C1CCN(C(=O)/C=C/C(=O)O)C1` (stereo partly drawn) [Example 8, (E)-4-(3-((7-(8-chloronaphthalen-1-yl)-2-(((S)-1-methylpyrrolidin-2-yl)methoxy)-5,6,7,8-tetrahydropyrido[3,4-d]pyrimidin-4-yl)(methyl)amino)pyrrolidin-1-yl)-4-oxobut-2-enoic acid], the IC50 fell in the range of 100 to 500 nM.

For the compound `CN1CCC[C@H]1COc1nc2c(c(N(C)[C@@H]3CCN(C(=O)/C=C/S(C)(=O)=O)C3)n1)CCN(c1cccc3cccc(Cl)c13)C2` [Example 9, (E)-1-((R)-3-((7-(8-chloronaphthalen-1-yl)-2-(((S)-1-methylpyrrolidin-2-yl)methoxy)-5,6,7,8-tetrahydropyrido[3,4-d]pyrimidin-4-yl)(methyl)amino)pyrrolidin-1-yl)-3-(methylsulfonyl)prop-2-en-1-one], the IC50 is < 10 nM.

Still in this experiment, the particulars now being: additional exemplary compounds; KRAS G12C and cRAF binding; read-out: RAF1 RBD IC50.
Turning to `C=CC(=O)CCN(C)c1nc(OC[C@@H]2CCCN2C)nc2c1CCN(c1cccc3cccc(Cl)c13)C2`, the IC50 is 10 to 100 nM.

As to `CN(C)C(=O)/C=C/C(=O)N1CC(CN(C)c2nc(OCC34CCCN3CCC4)nc3c(F)c(-c4cccc5cccc(Cl)c45)ncc23)C1`, the IC50 was > 500 nM.

Take `C=CC(=O)CCCN(C)c1nc(OC[C@@H]2CCCN2C)nc2c1CCN(c1cccc3cccc(Cl)c13)C2`: the IC50 was < 10 nM.

Consider `C=CS(=O)(=O)C1CCC(N(C)c2nc(OCC34CCCN3CCC4)nc3c2CCN(c2cccc4cccc(Cl)c24)C3)C1` (stereo not drawn), for which the IC50 was in the range of 10 to 100 nM.

As for `C=CC(=O)CCOc1nc(OC[C@@H]2CCCN2C)nc2c1CCN(c1cccc3ccccc13)C2`, the IC50 is > 500 nM.

As for `CN(C)C/C=C/S(=O)(=O)CCN(C)c1nc(OCC23CCCN2CCC3)nc2c1CCN(c1cccc3ccc(F)c(Cl)c13)C2`, the IC50 was < 10 nM.

For the compound `C=CC(=O)COc1nc(OC[C@@H]2CCCN2C)nc2c1CCN(c1cccc3ccccc13)C2`, the IC50 was > 500 nM.

In the case of `CN(C)C/C=C/C(=O)N1CC(CN(C)c2nc(OCC34CCCN3CCC4)nc3c(F)c(-c4cccc5cccc(Cl)c45)ncc23)C1`, the IC50 fell in the range of 10 to 100 nM.

`C=CC(=O)CCNc1nc(OC[C@@H]2CCCN2C)nc2c1CCN(c1cccc3ccccc13)C2`: the IC50 is > 500 nM.

With `CCN(C/C=C/S(=O)(=O)CCN(C)c1nc(OCC23CCCN2CCC3)nc2c(F)c(-c3cccc4cccc(Cl)c34)ncc12)CCOC`, the IC50 lay within 10 to 100 nM.

For the compound `C=CC(=O)[C@@H]1CC[C@H]1Nc1nc(OC[C@@H]2CCCN2C)nc2c1CCN(c1cccc3ccccc13)C2`, the half-inhibitory concentration (IC50) was > 500 nM.

For `C=CC(=O)N1CCC[C@@H](N(C)c2nc(OC[C@@]34CCCN3C[C@H](F)C4)nc3c2CCN(c2cccc4cccc(Cl)c24)C3)C1`, the half-maximal inhibitory concentration (IC50) was > 500 nM.

As for `C#Cc1c(F)ccc2cccc(-c3ncc4c(N(C)[C@H]5CCN(C(=O)C=C)C5)nc(OC[C@@]56CCCN5C[C@H](F)C6)nc4c3F)c12`, the IC50 was in the range of 100 to 500 nM.

Take `CN1CCC[C@H]1COc1nc(N(C)[C@@H]2CCN(C(=O)/C=C/CN3CC(F)(F)C3)C2)c2cnc(-c3cccc4cccc(Cl)c34)c(F)c2n1`: the IC50 fell in the range of 100 to 500 nM.

With `C=CC(=O)N1C[C@H](C)C[C@@H](Nc2nc(OC[C@@]34CCCN3C[C@H](F)C4)nc3c(F)c(-c4cccc5cccc(Cl)c45)ncc23)C1`, the IC50 was > 500 nM.

Take `CN(c1nc(OCC23CCCN2CCC3)nc2c1CCN(c1cccc3ccc(F)c(Cl)c13)C2)[C@@H]1CCN(C#N)C1`: the IC50 was 10 to 100 nM.

As for `C=CC(=O)N1CCCC1CN(C)c1nc(OC[C@@]23CCCN2C[C@H](F)C3)nc2c(F)c(-c3cccc4cccc(Cl)c34)ncc12` (stereo partly drawn), the IC50 is > 500 nM.

Turning to `CN(C)C/C=C/C(=O)N1CC[C@@H](N(C)c2nc(OCC34CCCN3CCC4)nc3c(F)c(-c4cccc5cccc(Cl)c45)ncc23)C1`, the IC50 was in the range of 10 to 100 nM.

In the case of `C#Cc1c(F)ccc2cccc(-c3ncc4c(N(C)[C@H]5CCN(C(=O)C=C)C5)nc(OC[C@]56CCCN5C[C@H](F)C6)nc4c3F)c12`, the IC50 is > 500 nM.

Turning to `CN(C)C/C=C/S(=O)(=O)CCN(C)c1nc(OC[C@@]23CCCN2C[C@H](F)C3)nc2c1CCN(c1cccc3cccc(Cl)c13)C2`, the IC50 is < 10 nM.

As to `CN(C)C/C=C/C(=O)N1CC[C@@H](N(C)c2nc(OCC34CCCN3CCC4)nc3c2CCN(c2cccc4ccc(F)c(Cl)c24)C3)C1`, the IC50 was in the range of 100 to 500 nM.

`CCN(C/C=C/S(=O)(=O)CCN(C)c1nc(OCC23CCCN2CCC3)nc2c1CCN(c1cccc3cccc(Cl)c13)C2)CCOC`: the IC50 was 10 to 100 nM.

As for `C=CC(=O)N1CCC[C@@H](N(C)c2nc(OC[C@@]34CCCN3C[C@H](F)C4)nc3c(F)c(-c4cccc5cccc(Cl)c45)ncc23)C1`, the IC50 is > 500 nM.

For `C=CC(=O)N1CC[C@@H](N(C)c2nc(OCC34CCCN3CCC4)nc3c2CCN(c2cccc4ccc(F)c(Cl)c24)C3)C1`, the IC50 is 100 to 500 nM.

In the case of `C=CC(=O)N1CC(CN(C)c2nc(OC[C@@]34CCCN3C[C@H](F)C4)nc3c(F)c(-c4cccc5cccc(Cl)c45)ncc23)C1`, the IC50 lay within 10 to 100 nM.

`C=CC(=O)N1CC[C@@H](N(C)c2nc(OC[C@@]34CCCN3C[C@H](F)C4)nc3c2CCN(c2cccc4ccc(F)c(Cl)c24)C3)C1`: the IC50 was 10 to 100 nM.

For `CN(CCS(=O)(=O)/C=C/CN1CC(F)(F)C1)c1nc(OC[C@@H]2CCCN2C)nc2c(F)c(-c3cccc4cccc(Cl)c34)ncc12`, the IC50 is > 500 nM.

For `CN(c1nc(OC[C@@]23CCCN2C[C@H](F)C3)nc2c(F)c(-c3cccc4cccc(Cl)c34)ncc12)[C@@H]1CCN(C#N)C1`, the IC50 is 10 to 100 nM.

Take `CN(C)C/C=C/C(=O)N1CC(CN(C)c2nc(OCC34CCCN3CCC4)nc3c2CCN(c2cccc4cccc(Cl)c24)C3)C1`: the IC50 was 100 to 500 nM.

For `CN(c1nc(OCC23CCCN2CCC3)nc2c1CCN(c1cccc3cccc(Cl)c13)C2)[C@@H]1CCN(C(=O)/C=C/CN2CC(F)C2)C1`, the IC50 lay within 10 to 100 nM.

Regarding `CCN(CC)C/C=C/S(=O)(=O)CCN(C)c1nc(OCC23CCCN2CCC3)nc2c(F)c(-c3cccc4cccc(Cl)c34)ncc12`, the IC50 was < 10 nM.

`COCCN(C)C/C=C/S(=O)(=O)CCN(C)c1nc(OCC23CCCN2CCC3)nc2c(F)c(-c3cccc4cccc(Cl)c34)ncc12`: the IC50 lay within 10 to 100 nM.
